From patent US9474701B2, “Antimicrobial soaps containing carvacrol and methods of using same” (Hydromer, Inc., priority 2014, dated 2016) come the findings set out here.

Assay [1] has as its system gram negative/gram positive bacteria. The assay is described as follows: Synergistic effect of soap ingredients with/without Carvacrol. The settings on record: for Efficacy against gram negative/gram positive bacteria: bacterial growth inhibition, ingredients with/without Carvacrol; for Synergistic effect: synergism with the Carvacrol. It counts as cell-based.
Assay [2] has the same test system. The assay is described as follows: Synergistic effect of soap ingredients with/without Oregano Oil. It counts as cell-based. As to conditions: for Efficacy against gram negative/gram positive bacteria: inhibition, ingredients with/without Oregano Oil; for Synergistic effect: synergism with Oregano Oil. How it is done: Main ingredients of NMP free V100, 2-Phenoxyethanol, Caprylyl glycol and Hexylene Glycol were analyzed in the concentrations that they appear in the Hydromer Antiseptic Soap with/without Oregano Oil.

“Hexylene Glycol [0.008% Hexylene Glycol]”: the “Efficacy against gram negative/gram positive bacteria” value in assay [1] and in assay [2] was “NO Inhibition” throughout.
Turning to `Cc1ccc(C(C)C)cc1O` [0.2% Carvacrol, Carvacrol], the “Efficacy against gram negative/gram positive bacteria” value in assay [1] is recorded as “NO Inhibition”.
In the case of `CCCCCCC(O)CO` (centres unmarked) [0.02% Caprylyl Glycol, Caprylyl Glycol], in assay [1], the “Efficacy against gram negative/gram positive bacteria” value is “NO Inhibition” and the Synergistic effect result is on record as “act synergistically”. Further, in assay [2], the “Efficacy against gram negative/gram positive bacteria” value is given as “NO Inhibition” and the Synergistic effect result is reported as “act synergistically”.
For `OCCOc1ccccc1` [0.035% 2-Phenoxyethanol, 2-Phenoxyethanol], the “Efficacy against gram negative/gram positive bacteria” value in assay [1] and in assay [2] was “NO Inhibition” in each case. Also, the Synergistic effect entry in assay [1] and in assay [2] was “act synergistically” each time.
